According to PubChem BioAssay AID1963861 (Molecular Pharmacology Branch, DTP, NCI, 2024):
pIC50: −log10 of the molar value.

System: 885724-159-R-J1-PDC KRAS PDC multicell spheroid viability
Experiment: Anticancer human tumor 885724-159-R-J1-PDC patient-derived pancreatic adenocarcinoma cell line growth inhibition [KRAS2]
Details: for pIC50: curve of first compound; for viability, T/C: stronger effect = lower value
Method in brief: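 Combination screen of spheroid viability in tumor-cell co-cultures with endothelial (HUVEC) and mesenchymal stem cell stroma. Each agent was tested in half-log dilutions, topping at clinical Cmax or at 10 microM without a known Cmax.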

[1] = second compound 0.1 µM, first compound 0.01 µM
[2] = second compound 0.1 µM, first compound 0.0316 µM
[3] = second compound 0.1 µM, first compound 0.1 µM
[4] = second compound 0.1 µM, first compound 0.316 µM
[5] = second compound 0.1 µM, first compound 1 µM
[6] = second compound 0.1 µM, first compound 3.16 µM
[7] = second compound 0.316 µM, first compound 0.01 µM
[8] = second compound 0.316 µM, first compound 0.0316 µM
[9] = second compound 0.316 µM, first compound 0.1 µM
[10] = second compound 0.316 µM, first compound 0.316 µM
[11] = second compound 0.316 µM, first compound 1 µM
[12] = second compound 0.316 µM, first compound 3.16 µM
[13] = second compound 1 µM, first compound 0.01 µM
[14] = second compound 1 µM, first compound 0.0316 µM
[15] = second compound 1 µM, first compound 0.1 µM
[16] = second compound 1 µM, first compound 0.316 µM
[17] = second compound 1 µM, first compound 1 µM
[18] = second compound 1 µM, first compound 3.16 µM
[19] = second compound 3.16 µM, first compound 0.01 µM
[20] = second compound 3.16 µM, first compound 0.0316 µM
[21] = second compound 3.16 µM, first compound 0.1 µM
[22] = second compound 3.16 µM, first compound 0.316 µM
[23] = second compound 3.16 µM, first compound 1 µM
[24] = second compound 3.16 µM, first compound 3.16 µM
[25] = second compound 10 µM, first compound 0.01 µM
[26] = second compound 10 µM, first compound 0.0316 µM
[27] = second compound 10 µM, first compound 0.1 µM
[28] = second compound 10 µM, first compound 0.316 µM
[29] = second compound 10 µM, first compound 1 µM
[30] = second compound 10 µM, first compound 3.16 µM
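Also: spheroids exposed to agents for 7 days before readout.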

Row | Structure (SMILES) | pIC50 (second compound 0.1 µM) | pIC50 (second compound 0.316 µM) | pIC50 (second compound 1 µM) | pIC50 (second compound 3.16 µM) | pIC50 (second compound 10 µM) | viability, T/C [1] | viability, T/C [2] | viability, T/C [3] | viability, T/C [4] | viability, T/C [5] | viability, T/C [6] | viability, T/C [7] | viability, T/C [8] | viability, T/C [9] | viability, T/C [14] | viability, T/C [15] | viability, T/C [20] | viability, T/C [21] | viability, T/C [26] | viability, T/C [27] | other results
1 | CC1COCCN1c1cc(-c2ccnn2C)c2ccnc(-c3ccn[nH]3)c2n1 (stereo not given) + CC1OCC2(CCN(c3cnc(Sc4ccnc(N)c4Cl)c(N)n3)CC2)C1N | < 5.50 | < 5.50 | 6.07 | 6.24 | 6.63 | 91.3% | 87.2% | 67.6% | 60.1% | 53% | 52.1% | 81% | 75.5% | 61.4% | 69.1% | 63% | 67.2% | 56.9% | 59.7% | 53.8% | viability, T/C [10]: 60.2%; viability, T/C [11]: 54.7%; viability, T/C [12]: 49.8%; viability, T/C [13]: 80.7%; viability, T/C [16]: 58.4%; viability, T/C [17]: 47.9%; viability, T/C [18]: 42.7%; viability, T/C [19]: 73.5%; viability, T/C [22]: 56%; viability, T/C [23]: 45.9%; viability, T/C [24]: 42.2%; viability, T/C [25]: 65.3%; viability, T/C [28]: 49.2%; viability, T/C [29]: 43.2%; viability, T/C [30]: 41%
2 | COc1cc(Nc2ncc3c(n2)-c2ccc(Cl)cc2C(c2c(F)cccc2OC)=NC3)ccc1C(=O)O + CC1OCC2(CCN(c3cnc(Sc4ccnc(N)c4Cl)c(N)n3)CC2)C1N | < 5.00 | < 5.00 | < 5.00 | < 5.00 | < 5.00 | – | 104% | 91.3% | 92.4% | 96.7% | 99% | – | 95.1% | 90.7% | 90% | 88.8% | 81.7% | 82.2% | 76.5% | 69.3% | viability, T/C (second compound 0.1 µM, first compound 10 µM): 103%; viability, T/C [10]: 85.8%; viability, T/C [11]: 84.1%; viability, T/C [12]: 91.2%; viability, T/C (second compound 0.316 µM, first compound 10 µM): 93.5%; viability, T/C [16]: 78%; viability, T/C [17]: 79.6%; viability, T/C [18]: 79.4%; viability, T/C (second compound 1 µM, first compound 10 µM): 87.7%; viability, T/C [22]: 76.4%; viability, T/C [23]: 73.8%; viability, T/C [24]: 75.2%; viability, T/C (second compound 3.16 µM, first compound 10 µM): 80.3%; viability, T/C [28]: 70.6%; viability, T/C [29]: 67.7%; viability, T/C [30]: 70.9%; viability, T/C (second compound 10 µM, first compound 10 µM): 70.9%
3 | CC(C)n1nc(-c2ccc3oc(N)nc3c2)c2c(N)ncnc21 + COc1cc2nc(C)nc(NC(C)c3cc(N)cc(C(F)(F)F)c3)c2cc1OC1CCOC1 | 7.77 | 7.69 | 7.74 | 8.12 | > 9.50 | 53.2% | 47% | 40.3% | – | – | – | 57.2% | 45% | 39.2% | 46.9% | 42% | 47% | 42.6% | 31.4% | 20.9% | viability, T/C (second compound 0.1 µM, first compound 0.000316 µM): 91.2%; viability, T/C (second compound 0.1 µM, first compound 0.001 µM): 76.2%; viability, T/C (second compound 0.1 µM, first compound 0.00316 µM): 62.7%; viability, T/C (second compound 0.316 µM, first compound 0.000316 µM): 90.3%; viability, T/C (second compound 0.316 µM, first compound 0.001 µM): 75.8%; viability, T/C (second compound 0.316 µM, first compound 0.00316 µM): 66.4%; viability, T/C (second compound 1 µM, first compound 0.000316 µM): 93%; viability, T/C (second compound 1 µM, first compound 0.001 µM): 78.8%; viability, T/C (second compound 1 µM, first compound 0.00316 µM): 59.7%; viability, T/C [13]: 56%; viability, T/C (second compound 3.16 µM, first compound 0.000316 µM): 76.4%; viability, T/C (second compound 3.16 µM, first compound 0.001 µM): 69.8%; viability, T/C (second compound 3.16 µM, first compound 0.00316 µM): 54.8%; viability, T/C [19]: 49.1%; viability, T/C (second compound 10 µM, first compound 0.000316 µM): 36.4%; viability, T/C (second compound 10 µM, first compound 0.001 µM): 24.9%; viability, T/C (second compound 10 µM, first compound 0.00316 µM): 47.5%; viability, T/C [25]: 39.8%
